The source of these data is ChEMBL document CHEMBL4392854, “Discovery, synthesis, biological evaluation and molecular docking study of (R)-5-methylmellein and its analogs as selective monoamine oxidase A inhibitors” (Bioorg Med Chem, 2019).

In data set [1] the target is T1, Amine oxidase [flavin-containing] A (Homo sapiens, UniProt P21397).
T1 sequence (P21397 whole entry): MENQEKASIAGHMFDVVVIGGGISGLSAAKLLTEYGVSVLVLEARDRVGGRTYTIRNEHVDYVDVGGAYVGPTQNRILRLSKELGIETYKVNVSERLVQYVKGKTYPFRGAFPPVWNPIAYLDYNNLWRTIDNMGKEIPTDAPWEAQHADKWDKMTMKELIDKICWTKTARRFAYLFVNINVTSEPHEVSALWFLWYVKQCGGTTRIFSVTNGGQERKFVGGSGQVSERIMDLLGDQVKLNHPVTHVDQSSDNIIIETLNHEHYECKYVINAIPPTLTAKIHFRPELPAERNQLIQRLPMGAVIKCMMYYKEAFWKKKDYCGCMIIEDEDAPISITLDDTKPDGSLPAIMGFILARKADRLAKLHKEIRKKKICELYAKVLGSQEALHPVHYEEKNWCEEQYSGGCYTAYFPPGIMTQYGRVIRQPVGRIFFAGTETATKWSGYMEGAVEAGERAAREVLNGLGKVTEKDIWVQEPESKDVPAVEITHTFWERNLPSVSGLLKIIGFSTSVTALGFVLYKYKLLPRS
The experiment in a line: Inhibition of human recombinant MAOA using kynuramine as substrate incubated for 10 mins by UPLC-ESI-MS/MS analysis.

Data set [2] addresses T2, Amine oxidase [flavin-containing] B (Homo sapiens, UniProt P27338).
T2 sequence (P27338 whole entry): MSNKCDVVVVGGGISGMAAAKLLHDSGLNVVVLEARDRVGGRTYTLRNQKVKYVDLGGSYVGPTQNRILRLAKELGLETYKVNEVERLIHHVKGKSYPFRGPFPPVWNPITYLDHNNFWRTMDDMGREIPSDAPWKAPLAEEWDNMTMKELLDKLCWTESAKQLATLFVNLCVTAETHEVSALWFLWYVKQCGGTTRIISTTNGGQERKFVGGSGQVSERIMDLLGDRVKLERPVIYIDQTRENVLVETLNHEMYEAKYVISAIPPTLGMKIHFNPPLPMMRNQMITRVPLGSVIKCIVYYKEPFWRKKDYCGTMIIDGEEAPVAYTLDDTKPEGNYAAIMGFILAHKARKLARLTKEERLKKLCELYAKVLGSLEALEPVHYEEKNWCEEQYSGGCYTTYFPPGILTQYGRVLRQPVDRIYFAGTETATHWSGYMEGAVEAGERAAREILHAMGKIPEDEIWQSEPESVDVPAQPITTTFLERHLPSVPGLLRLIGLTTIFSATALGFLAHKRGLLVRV
Put plainly: Inhibition of human recombinant MAOB using kynuramine as substrate incubated for 10 mins by UPLC-ESI-MS/MS analysis.

For a further data set, the species on record is Homo sapiens. The experiment in a line: Selectivity index, ratio of IC50 for human recombinant MAOB to IC50 for human recombinant MAOA.
The target in data set [3] is T1, Amine oxidase [flavin-containing] A. The experiment in a line: Tight binding competitive inhibition of human recombinant MAOA using 50 uM to 1000 uM kynuramine as substrate incubated for 10 mins by UPLC-ESI-MS/MS analysis based kinetic analysis.
For data set [4] the target is unchanged. The experiment in a line: Inhibition of human recombinant MAOA using kynuramine as substrate incubated for 10 mins by UPLC-ESI-MS/MS analysis based Michaelis-Menten plot kinetic analysis.
For data set [5] the target is unchanged. The experiment in a line: Inhibition of human recombinant MAOA using kynuramine as substrate incubated for 10 mins by UPLC-ESI-MS/MS analysis based Eadie-Hofstee plot analysis.
For data set [6] the target is unchanged. Put plainly: Tight-binding competitive inhibition of human recombinant MAOA using kynuramine as substrate incubated for 10 mins by UPLC-ESI-MS/MS analysis based Lineweaver-Burk plot kinetic analysis.
For the next data set, the target named is T3, Monoamine oxidase (Mus musculus, UniProt Q8BW75+Q64133).
T3 sequence (Q8BW75 whole entry): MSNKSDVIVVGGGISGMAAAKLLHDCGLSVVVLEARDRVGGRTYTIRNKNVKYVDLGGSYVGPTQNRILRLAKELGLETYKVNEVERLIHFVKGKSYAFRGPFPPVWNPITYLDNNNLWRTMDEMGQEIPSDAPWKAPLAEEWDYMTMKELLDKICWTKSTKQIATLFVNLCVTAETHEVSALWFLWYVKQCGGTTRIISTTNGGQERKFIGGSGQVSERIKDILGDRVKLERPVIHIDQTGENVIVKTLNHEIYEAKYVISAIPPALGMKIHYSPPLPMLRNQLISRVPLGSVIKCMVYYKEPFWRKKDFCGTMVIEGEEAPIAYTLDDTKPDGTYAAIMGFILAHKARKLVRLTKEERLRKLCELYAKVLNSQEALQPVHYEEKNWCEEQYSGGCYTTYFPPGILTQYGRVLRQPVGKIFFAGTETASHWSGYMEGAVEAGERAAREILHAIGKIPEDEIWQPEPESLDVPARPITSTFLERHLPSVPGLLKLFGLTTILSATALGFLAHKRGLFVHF
T3 sequence (Q64133 whole entry): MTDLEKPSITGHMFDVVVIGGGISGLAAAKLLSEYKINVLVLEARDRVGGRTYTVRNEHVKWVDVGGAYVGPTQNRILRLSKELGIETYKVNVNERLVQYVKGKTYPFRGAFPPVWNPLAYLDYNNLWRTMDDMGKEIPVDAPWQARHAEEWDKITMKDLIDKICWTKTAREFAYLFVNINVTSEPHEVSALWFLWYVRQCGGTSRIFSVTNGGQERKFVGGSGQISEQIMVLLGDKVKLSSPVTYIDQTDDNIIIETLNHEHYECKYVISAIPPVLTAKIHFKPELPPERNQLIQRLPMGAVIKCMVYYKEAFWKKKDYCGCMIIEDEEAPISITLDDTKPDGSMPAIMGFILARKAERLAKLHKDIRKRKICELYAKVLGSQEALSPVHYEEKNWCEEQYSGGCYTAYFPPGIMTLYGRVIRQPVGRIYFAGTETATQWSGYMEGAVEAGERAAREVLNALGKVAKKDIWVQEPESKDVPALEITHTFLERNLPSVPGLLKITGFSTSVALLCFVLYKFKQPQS
The experiment in a line: Inhibition of mouse brain monoamine oxidase.

Some results are limits rather than exact numbers.

Regarding `CC[C@@H]1Cc2c(C)cc(-c3cncnc3)c(O)c2C(=O)O1`, the 50% inhibitory concentration (IC50) (usually the concentration at which inhibition is half-maximal) in data set [1] is 0.06 µM; in data set [2] it was greater than 50 µM. Also, in the data set filed under Homo sapiens, the Ratio IC50 is greater than 830. The “inhibition (INH)” value in data set [3], in data set [4], in data set [5] and in data set [6] was “Active” in each case.

With `Cc1ccc(O)c2c1C[C@@H](C)OC2=O`, the IC50 against Monoamine oxidase is 1.06 µM; in data set [1] it was 4.6 µM; in data set [2] it was 38.5 µM. In the data set listed under Homo sapiens, the Ratio IC50 stood at 8.3.
